Results reported in patent publication US20040142971A1, “BENZOTHIOPHENE COMPOUNDS HAVING ANTIINFECTIVE ACTIVITY” (GeneSoft, Inc., priority 2001, published 2004).

Experiments:
Assay in all cases: MIC, NCCLS broth microdilution
[1] = test system: E. faecium ATCC 51559 (vancomycin resistant strain, VRE); type: cell-based, Enterococcus faecium; details: Enterococcus faecium, read-out: Minimum Inhibitory Concentration (MIC)
Description: (§1) In vitro biological activity data were collected for a variety of microorganisms, including Bacillus cereus (ATCC 11778), Staphylococcus aureus (ATCC 27660 (a methicillin resistant strain (MRSA), ATCC 33591 and ATCC 43300); ATCC 13709, a methicillin sensitive strain (MSSA)); Streptococcus pneumoniae (ATCC 51422, a penicillin resistant strain (PRSP)), Enterococcus faecium (ATCC 51559, a vancomycin resistant strain (VRE)), and Staphylococcus epidermidis (ATCC 700586, a methycillin resistant strain (MRSE)). Additionally, antifungal activity data were collected for Candida albicans (ATCC 38247). Minimal inhibition concentrations (MIC's) were determined using the National Committee for Clinical Laboratory Standards (NCCLS) broth microdilution assay in microtiter plates, as set forth in: (1) the guidelines of the National Committee for Clinical Laboratory Standards (NCCLS) Document M7-A4 (NCCLS, 1997); (2) the guidelines of the National Committee for Clinical Laboratory Standards (NCCLS) Document M11-A4 (NCCLS, 1997); and (3) the guidelines and reference method of the National Committee for Clinical Laboratory Standards (NCCLS) Document M27-T (NCCLS, 1995). For antifungal essays, the method recommended in Murray, PR., 1995 Manual of Clinical Microbiology (ASM Press, Washington, D.C.), was employed.

[2] = test system: B. Cereus ATCC 11778; type: cell-based, Bacillus cereus; details: Bacillus cereus, ATCC11778, read-out: Minimum Inhibitory Concentration (MIC)
How it was run: (§2)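 MIC determined by broth microdilution in microtiter plates following NCCLS guidelines (documents M7-A4, M11-A4 and M27-T).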

[3] = test system: S. epidermidis ATCC 700586 (methycillin resistant strain, MRSE); type: cell-based, Staphylococcus epidermidis; details: Staphylococcus epidermidis, read-out: Minimum Inhibitory Concentration (MIC)
Description: as §1

[4] = test system: S. pneumoniae ATCC 51422 (penicillin resistant strain, PRSP); type: cell-based, Streptococcus pneumoniae; details: Streptococcus pneumoniae, read-out: Minimum Inhibitory Concentration (MIC)
Description: as §1

[5] = test system: S. aureus ATCC 33591; type: cell-based, Staphylococcus aureus; details: Staphylococcus aureus, ATCC33591, read-out: Minimum Inhibitory Concentration (MIC)
How it was run: as §2

[6] = test system: S. aureus ATCC 27660 (methicillin resistant strain, MRSA); type: cell-based, Staphylococcus aureus; details: Staphylococcus aureus, read-out: Minimum Inhibitory Concentration (MIC)
How it was run: as §2

[7] = test system: S. aureus ATCC 13709 (methicillin sensitive strain, MSSA); type: cell-based, Staphylococcus aureus; details: Staphylococcus aureus, read-out: Minimum Inhibitory Concentration (MIC)
How it was run: as §2

[8] = test system: S. aureus ATCC 43300; type: cell-based; details: Staphylococcus aureus, ATCC43300, read-out: Minimum Inhibitory Concentration (MIC)
Description: as §1

Measured: MIC

Cn1cc(NC(=O)c2cc(NC(=O)c3cc(NC(=O)c4sc5ccccc5c4Cl)cn3C)cn2C)cc1C(=O)NCCN1CCOCC1 [Ib-1]
< 4 µg/mL: all assays above
